The results in this text go back to article PMC12317126 (Nature Communications, 2025).

Assay [1] deals with T1, cystic fibrosis transmembrane conductance regulator (CFTR) (Homo sapiens, UniProt P13569, W401A).
T1 construct: C-terminally GFP-fused CFTR in CHO-K1 cells
Kind of assay: inside-out patch-clamp, inhibition kinetics at […]. The assay is classed as cell-based.

Assay [2] concerns the target T2, cystic fibrosis transmembrane conductance regulator (CFTR) (Homo sapiens, UniProt P13569).
T2 construct: WT human CFTR, PKA-phosphorylated
Kind of assay: ATP hydrolysis of purified CFTR (kcat […] to […] per minute at […]); inside-out patch-clamp. Format: biochemical.

Molecules are shown by their SMILES.

T2 sequence (P13569 whole entry): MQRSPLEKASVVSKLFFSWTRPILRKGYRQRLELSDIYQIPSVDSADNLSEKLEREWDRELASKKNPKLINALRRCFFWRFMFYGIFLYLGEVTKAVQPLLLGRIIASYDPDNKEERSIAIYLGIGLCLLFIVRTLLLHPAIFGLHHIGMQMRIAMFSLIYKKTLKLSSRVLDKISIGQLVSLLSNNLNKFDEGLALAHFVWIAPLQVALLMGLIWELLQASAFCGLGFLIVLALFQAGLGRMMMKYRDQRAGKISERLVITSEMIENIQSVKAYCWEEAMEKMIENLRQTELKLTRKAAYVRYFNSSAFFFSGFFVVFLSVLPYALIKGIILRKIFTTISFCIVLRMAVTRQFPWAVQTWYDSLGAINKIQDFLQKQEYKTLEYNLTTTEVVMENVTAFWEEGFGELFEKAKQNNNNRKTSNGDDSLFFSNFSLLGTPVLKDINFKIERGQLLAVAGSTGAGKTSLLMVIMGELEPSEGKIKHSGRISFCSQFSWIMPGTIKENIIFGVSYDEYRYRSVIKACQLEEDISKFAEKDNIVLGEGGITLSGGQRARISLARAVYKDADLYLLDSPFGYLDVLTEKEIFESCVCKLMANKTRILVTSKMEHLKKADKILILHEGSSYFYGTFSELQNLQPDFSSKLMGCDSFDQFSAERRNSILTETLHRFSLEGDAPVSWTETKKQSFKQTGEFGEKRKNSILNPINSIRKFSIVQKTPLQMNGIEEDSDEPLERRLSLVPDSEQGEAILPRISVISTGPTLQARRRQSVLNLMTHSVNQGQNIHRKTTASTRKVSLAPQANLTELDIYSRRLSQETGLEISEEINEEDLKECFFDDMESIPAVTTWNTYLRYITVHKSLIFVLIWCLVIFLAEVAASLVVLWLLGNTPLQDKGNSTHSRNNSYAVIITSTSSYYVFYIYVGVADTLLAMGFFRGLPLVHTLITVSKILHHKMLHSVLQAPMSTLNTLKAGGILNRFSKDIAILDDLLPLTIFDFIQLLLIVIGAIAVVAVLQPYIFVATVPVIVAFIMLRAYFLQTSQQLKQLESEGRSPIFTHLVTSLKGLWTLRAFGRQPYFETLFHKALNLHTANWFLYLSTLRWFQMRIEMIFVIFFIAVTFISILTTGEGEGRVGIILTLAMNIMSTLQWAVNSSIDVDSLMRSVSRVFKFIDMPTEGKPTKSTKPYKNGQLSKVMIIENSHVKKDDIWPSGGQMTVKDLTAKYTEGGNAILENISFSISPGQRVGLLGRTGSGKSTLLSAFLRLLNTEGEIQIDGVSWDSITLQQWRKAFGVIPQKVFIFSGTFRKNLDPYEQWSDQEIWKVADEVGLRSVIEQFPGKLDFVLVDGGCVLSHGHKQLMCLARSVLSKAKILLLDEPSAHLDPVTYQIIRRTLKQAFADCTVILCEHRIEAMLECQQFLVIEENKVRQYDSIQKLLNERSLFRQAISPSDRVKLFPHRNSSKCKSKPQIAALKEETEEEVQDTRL
T1 sequence (P13569 whole entry W401A, the tested form may be a part): as the sequence (P13569 whole entry) above, with W401A counted along it

With `Cn1c(=O)c2c(-c3ccccc3)n3c(c2n(C)c1=O)[C@H](c1ccc(Br)o1)Oc1ccc(C(=O)O)cc1-3` [(R)-BPO-27], the “inside-out patch-clamp, inhibition kinetics at 10 μM” value in assay [1] is 4.5 ± 0.8 s (t1/2 of inhibition at 10 µM).
Take `O=C(O)c1ccc(/C=C2\SC(=S)N(c3cccc(C(F)(F)F)c3)C2=O)cc1` [CFTRinh-172]: 10 µM produced 72% inhibition in assay [2].
